Results published in patent US4201784A, “Substituted 2-[2'-(5"-nitrofuryl-2")vinyl-and 4'-(5"-nitrofuryl-2"-1,3-butadieryl]quinoline-4-carboxylic acid amides and salts thereof” (Institut Organicheskogo Sinteza Akademii Nauk Latviiskoi SSR, priority 1977, dated 1980).
Entries after “also recorded” stand apart in the source; their conditions may differ.

What was measured:
[1] = tested on: sarcoma AK; test: Antitumor activity, sarcoma AK; assay type: in vivo, mice
Protocol: (§1) Apart from the tests on Ehrlich ascitic tumor, giniquine was studied on twelve more inoculated tumors. Seven tumors (melanoma B16, sarcoma AK, large intestine carcinoma acatol-1, sarcoma 180, adenocarcinoma 755, Lewis lung carcinoma and sarcoma 37) were inoculated subcutaneously with 50 mg of tumoral cells per mouse. Four tumors (lymphatic leukemies L 5178, L 5178Y, L 1210 and P-388) were inoculated intraperitoneally with 10^6 cells per mouse. One tumor (La, hemocytoblastosis) was inoculated intraperitoneally by injecting 50 mg of cell suspension of spleen and liver of mice suffering La hemocytoblastosis, per mouse. Giniquine was injected intraperitoneally five times for seven days: 1,2,3,4,7 days or 3,4,5,6,7 days after the implantation of tumor. The rate of deceleration of the tumor growth was established 14 days after the ultimate injection of giniquine; life of test animals was recorded for 60 days.

[2] = tested on: lymphatic leukemia L 5178Y; test: Antitumor activity, lymphatic leukemia L 5178Y; assay type: in vivo, mice
Protocol: as §1

[3] = tested on: tumor cells; test: Antiblastic activity and selectivity of action on tumor cells (general statement)
[4] = Germicidal activity
[5] = tested on: Spleen; test: In vivo biosynthesis of DNA, RNA and protein in spleen; design: species or system mice; conditions: for Incorporation of 2-^14 C-leucine in protein / Incorporation of 2-^14 C-thymidine in DNA: intraperitoneal 100 mg/kg
Protocol: The influence of giniquine on biosynthetic processes in the in vivo tests was studied on common white mice of a mass of 25-35 g with Ehrlich ascitic tumor.
The mice were divided into two groups. The animals in the first group were given a single injection of the preparation in differing doses, and the animals in the second group were treated with distilled water. Three series of experiments were conducted. In the first series of tests (16 mice) the preparation was injected in a dose of 100 mg/kg ([…] dose), and the animals were decapitated one hour after the injection; in the second test series (16 mice) the animals were slaughtered 3 hours after the injection with other conditions being the same. In the third test series (35 mice) the influence of giniquine on plastic metabolism in tumor cells and normal tissues was studied 24 hours after the injection of a 0.33% solution of the preparation in a dose of 28 mg/kg (therapeutical dose).
Labeled precursors of nucleic acids and protein were injected intraperitoneally one hour before the slaughter of the animals (50 μc/100 g). Ascitic fluid, as well as liver and spleen, mucous membrane of small intestine, brain, kidneys and lungs were taken for analysis. 10% suspension was prepared from tumor cells, and 10% homogenates were prepared from tissues in a physiological solution.
Tumor cells and tissue homogenates for precipitation of nucleic acids were treated with 57% perchloric acid (10:1). Acid-soluble fraction was removed by washing the precipitate twice with 5 ml of 5% perchloic acid with subsequent centrifuging at 2000 g. Nucleic acids were hydrolyzed by the Schneider method. Radioactivity of DNA and RNA fractions was measured by means of a liquid scintillation counter. The quantity of DNA and RNA was determined by spectrophotometry: the quantity of DNA was determined with diphenylamine, and RNA- with orcin.
To prepare protein hydrolysate, the suspension of tumoral cells and homogenates of normal tissues were treated with cool 10% trichloracetic acid (1:4), with subsequent centrifuging at 2000 g for ten minutes. The precipitate was washed twice with 5 ml of 10% trichloracetic acid. Lipoids were removed by a consecutive treatment of the precipitate with ethanol, saturated solution of sodium acetate, a mixture of ethanol and ether (3:1) and ether. To prepare protein hyhdrolysate, 4 ml of 0.3N KOH were added to the precipitate, and the mixture was placed into a thermostatic chamber at 37° C. for 60 minutes. The radioactivity was measured by means of a liquid scintillation counter. Protein was quantitatively determined by spectrophotometry using a microbiuret reaction.

[6] = tested on: lymphatic leukemia L 5178; test: Antitumor activity, life prolongation, lymphatic leukemia L 5178; assay type: in vivo, mice
Protocol: as §1

[7] = tested on: Lewis lung carcinoma; test: Antitumor / antimetastatic activity, Lewis lung carcinoma; assay type: in vivo, mice
Protocol: as §1

[8] = BDF1 female mice, intraperitoneal, days 1,2,3,4,7, optimum daily dose 6.0 mg/kg
[9] = 24 hours, intraperitoneal 28 mg/kg

SMILES: CCN(CC)CCCC(C)NC(=O)c1cc(C=Cc2ccc([N+](=O)[O-])o2)nc2ccccc12 (stereo not drawn) [giniquine, 2-[2'-(5"-nitrofuryl-2")vinyl]quinoline-4-carboxylic acid (α-methyl-δ-diethylaminobutyl)amide triphosphate]
- Deceleration of tumor growth ([1]; common female mice, intraperitoneal, days 3,4,5,6,7, optim. daily dose 2.2 mg/kg): 46%
- Max. prolongation of life ([1]; common female mice, intraperitoneal, days 3,4,5,6,7, optim. daily dose 10.0 mg/kg): 15%
- antitumor effect (in words) ([1]; sarcoma AK): slight antitumor effect
- Max. life prolong. [2, 8]: 5%
- sensitivity (in words) ([2]; L-5178Y): practically insensitive
- antiblastic / antitumoral activity [3]: highly active antitumoral preparation
- selective (contact) action on tumor cells [3]: selective action on tumor cells
- germicidal activity [4]: exhibits a germicidal activity; also recorded: combines in itself both actions
- Incorporation of 2-^14 C-leucine in protein ([5]; 1 h): 97.0 % of control
- Incorporation of 2-^14 C-thymidine in DNA ([5]; 1 h): 120.0 % of control
- Incorporation of 2-^14 C-leucine in protein ([5]; 3 h): 40.0 % of control
- Incorporation of 2-^14 C-thymidine in DNA ([5]; 3 h): 116.0 % of control
- Incorporation of specific precursors, DNA [5, 9]: 330.0 % of control
- Incorporation of specific precursors, Protein [5, 9]: 93.0 % of control
- Incorporation of specific precursors, RNA [5, 9]: 162.0 % of control
- inhibition at 100 mg/kg ([5]; Mus musculus, 3 h, three hours, 100 mg/kg): 60%
- inhibition of biosynthesis of protein (in words) ([5]; one hour, 100 mg/kg): not observed or inappreciable
- stimulation of biosynthesis of DNA ([5]; one hour, 100 mg/kg): 20%
- stimulation of biosynthesis of DNA ([5]; three hours, 100 mg/kg): 16%
- Max. life prolong. ([6]; common female mice, intraperitoneal, days 1,2,3,4,7, optimum daily dose 10.0 mg/kg): 30%
- antiblastic activity / sensitivity (in words) ([6]; lymphatic leukemia L 5178): slight antitumor effect
- Max. life prolong. [7, 8]: 15%
- antimetastatic activity / sensitivity (in words) ([7]; Lewis lung carcinoma): practically insensitive
